System: 422866-222-R5-J1-PDC complex spheroid viability
Assay: Anticancer human tumor 422866-222-R5-J1-PDC patient-derived pancreatic adenocarcinoma cell line growth inhibition [POLQ]
Conditions: for IC50: curve of first compound; for viability, T/C: stronger effect = lower value
Description: Multicellular complex tumor spheroid response to Polymerase (POL) inhibitors (novobiocin, ART-558, RP6685) in combination with a variety of drugs and investigational agents in selected tumor cell lines
The POL inhibitors (novobiocin, ART-558, and RP6685) were evaluated both individually and in combination with standard of care and investigational anticancer small molecules within a complex spheroid model of solid tumors. . Complex spheroids include a stromal component modeled by human endothelial cells (HUVEC) and fibroblasts modeled by human mesenchymal stem cells (MSCs). The concentration ranges selected for each drug and investigational agent were based upon clinically achievable concentrations if the clinical Cmax of the agent was known.
Compounds. The drugs and investigational agents: novobiocin (NSC847541), ART-558 (NSC835418), RP-6685 (NSC848927), peposertib (NSC802822), ceralasertib (NSC780249), elimusertib (NSC800525), camonsertib (NSC841442), AZD-1390 (NSC803789), olaparib (NSC753686), talazoparib (NSC767125), rucaparib (NSC756644), sotorasib (NSC818433), MRTX-1133 (NSC836407), SN-38 (NSC673596), topotecan (NSC609699), epotoside (NSC141540), doxorubicin (NSC123127), gemcitabine (NSC613327), 5-fluorouracil (NSC19893), paclitaxel (NSC125973), vemurafenib (NSC761431), MSA-2 (NSC828583), SN-011 (NSC837082), adavosertib (NSC754352), prexasertib (NSC758257), carboplatin (NSC241240) and oxaliplatin (NSC266046), were obtained from the National Cancer Institute (NCI) Developmental Therapeutics Program Chemical Repository (21). The FDA-approved anticancer drug set is available from the Developmental Therapeutics Program at https://dtp.cancer.gov/organization/dscb/obtaining/. […] The stock solutions were prepared in dimethyl sulfoxide (DMSO, Sigma-Aldrich, St. Louis, MO, cat. D2650), except for the platinum compounds which were prepared in saline (Quality Biological, Gaithersburg, MD, cat. 114-055-101), at 800-fold the tested concentration and stored at -70 degrees C prior to their use. All drugs and investigational agents were tested over a range starting from a high concentration at or near the clinical Cmax and decreasing in half-log increments. If the clinical Cmax for an agent had not been determined, the highest concentration tested was 10 microM, except for SN-38, which was tested at a high concentration of 1 microM.
Cell Culture. All cells were maintained in an incubator at 37 degrees C and 5% CO2 with 95% humidity. The PDC lines were cultured according to standard operating procedures established by the NCI PDMR (https://pdmr.cancer.gov). Table 3 of the manuscript, lists the cell lines along with the number of the three cell types plated to form the mct-spheroids and media for tumor cell growth. After thawing, all PDC lines, except 997537-175-T-J1-PDC and 415267-285-R-J2-PDC, were cultured in Matrigel-coated flasks prepared with a working solution of 1X Ham's F-12 nutrient mix, without supplementation (Thermo Fisher Scientific, cat. 11765054), 100 U/mL penicillin-streptomycin (Thermo Fisher Scientific, cat. 15140122), and 2.5% Matrigel (Corning Inc., Corning, NY, cat. 354248) for the first three passages. The two PDC lines 997537-175-T-J1-PDC and 415267-285-R-J2-PDC were cultured on uncoated flasks. The 857933-349-R-J2-PDC line was cultured in 6C/Colon 1B media containing advanced DMEM/F-12 (Thermo Fisher Scientific, cat. 12634028), 10 mM HEPES (Thermo Fisher Scientific, cat. 15630080), 1X GlutaMAX supplement (Thermo Fisher Scientific, cat. 35050061), 0.1 mg/mL primocin (InvivoGen, San Diego, CA, cat. ant-pm-2), 10% defined fetal bovine serum, heat inactivated (HyClone Laboratories Inc., Logan, UT, cat. SH30070.03HI), 50% L-WRN conditioned media (ATCC, cat. CRL-3276), 1.25 mM N-Acetyl-L-cysteine (Sigma-Aldrich, cat. A9165), 10 mM nicotinamide (Sigma-Aldrich, cat. N0636), 1X B-27 supplement (Thermo Fisher Scientific, cat. 17504044), 1X N-2 supplement (Thermo Fisher Scientific, cat. […]

[1] = second compound 0.0316 µM, first compound 0.0316 µM
[2] = second compound 0.0316 µM, first compound 0.1 µM
[3] = second compound 0.0316 µM, first compound 0.316 µM
[4] = second compound 0.0316 µM, first compound 1 µM
[5] = second compound 0.0316 µM, first compound 3.16 µM
[6] = second compound 0.0316 µM, first compound 10 µM
[7] = second compound 0.1 µM, first compound 0.0316 µM
[8] = second compound 0.1 µM, first compound 0.1 µM
[9] = second compound 0.1 µM, first compound 0.316 µM
[10] = second compound 0.1 µM, first compound 1 µM
[11] = second compound 0.1 µM, first compound 3.16 µM
[12] = second compound 0.1 µM, first compound 10 µM
[13] = second compound 0.316 µM, first compound 0.0316 µM
[14] = second compound 0.316 µM, first compound 0.1 µM
[15] = second compound 0.316 µM, first compound 0.316 µM
[16] = second compound 0.316 µM, first compound 1 µM
[17] = second compound 0.316 µM, first compound 3.16 µM
[18] = second compound 0.316 µM, first compound 10 µM
[19] = second compound 1 µM, first compound 0.0316 µM
[20] = second compound 1 µM, first compound 0.1 µM
[21] = second compound 1 µM, first compound 0.316 µM
[22] = second compound 1 µM, first compound 1 µM
[23] = second compound 1 µM, first compound 3.16 µM
[24] = second compound 1 µM, first compound 10 µM
[25] = second compound 3.16 µM, first compound 0.0316 µM
[26] = second compound 3.16 µM, first compound 0.1 µM
[27] = second compound 3.16 µM, first compound 0.316 µM
[28] = second compound 3.16 µM, first compound 1 µM
[29] = second compound 3.16 µM, first compound 3.16 µM
[30] = second compound 3.16 µM, first compound 10 µM
[31] = second compound 10 µM, first compound 0.0316 µM
[32] = second compound 10 µM, first compound 0.1 µM
[33] = second compound 10 µM, first compound 0.316 µM
[34] = second compound 10 µM, first compound 1 µM
[35] = second compound 10 µM, first compound 3.16 µM
[36] = second compound 10 µM, first compound 10 µM
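Note: spheroids exposed to compounds for one week before readout.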
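Throughout, for viability, T/C: percent of DMSO vehicle wells luminescence so 100% = untreated viability.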

CC(=O)O[C@H]1C(=O)[C@@]2(C)[C@H]([C@H](OC(=O)c3ccccc3)[C@]3(O)C[C@H](OC(=O)[C@H](O)[C@@H](NC(=O)c4ccccc4)c4ccccc4)C(C)=C1C3(C)C)[C@]1(OC(C)=O)CO[C@@H]1C[C@@H]2O + COC1C(OC(N)=O)C(O)C(Oc2ccc3c(O)c(NC(=O)c4ccc(O)c(CC=C(C)C)c4)c(=O)oc3c2C)OC1(C)C
IC50 (second compound 0.0316 µM): > 3000 nM | IC50 (second compound 0.1 µM): > 3000 nM | IC50 (second compound 0.316 µM): > 3000 nM | IC50 (second compound 1 µM): > 3000 nM | IC50 (second compound 3.16 µM): > 3000 nM | IC50 (second compound 10 µM): > 3000 nM | viability, T/C (second compound 0.0316 µM, first compound 0.00949 µM): 64.8% | viability, T/C (second compound 0.0316 µM, first compound 0.03 µM): 57.2% | viability, T/C (second compound 0.0316 µM, first compound 0.0949 µM): 61.5% | viability, T/C (second compound 0.0316 µM, first compound 0.3 µM): 59.5% | viability, T/C (second compound 0.0316 µM, first compound 0.949 µM): 64.7% | viability, T/C (second compound 0.0316 µM, first compound 3 µM): 80.4% | viability, T/C (second compound 0.1 µM, first compound 0.00949 µM): 71.6% | viability, T/C (second compound 0.1 µM, first compound 0.03 µM): 67.4% | viability, T/C (second compound 0.1 µM, first compound 0.0949 µM): 66% | viability, T/C (second compound 0.1 µM, first compound 0.3 µM): 67% | viability, T/C (second compound 0.1 µM, first compound 0.949 µM): 69.1% | viability, T/C (second compound 0.1 µM, first compound 3 µM): 78.8% | viability, T/C (second compound 0.316 µM, first compound 0.00949 µM): 67% | viability, T/C (second compound 0.316 µM, first compound 0.03 µM): 63.5% | viability, T/C (second compound 0.316 µM, first compound 0.0949 µM): 54.6% | viability, T/C (second compound 0.316 µM, first compound 0.3 µM): 65.1% | viability, T/C (second compound 0.316 µM, first compound 0.949 µM): 70.7% | viability, T/C (second compound 0.316 µM, first compound 3 µM): 84.5% | viability, T/C (second compound 1 µM, first compound 0.00949 µM): 62.1% | viability, T/C (second compound 1 µM, first compound 0.03 µM): 54.9% | viability, T/C (second compound 1 µM, first compound 0.0949 µM): 61.4% | viability, T/C (second compound 1 µM, first compound 0.3 µM): 56.3% | viability, T/C (second compound 1 µM, first compound 0.949 µM): 59.6% | viability, T/C (second compound 1 µM, first compound 3 µM): 81.1% | viability, T/C (second compound 3.16 µM, first compound 0.00949 µM): 66.8% | viability, T/C (second compound 3.16 µM, first compound 0.03 µM): 52.9% | viability, T/C (second compound 3.16 µM, first compound 0.0949 µM): 55.3% | viability, T/C (second compound 3.16 µM, first compound 0.3 µM): 54% | viability, T/C (second compound 3.16 µM, first compound 0.949 µM): 75% | viability, T/C (second compound 3.16 µM, first compound 3 µM): 86.7% | viability, T/C (second compound 10 µM, first compound 0.00949 µM): 63.7% | viability, T/C (second compound 10 µM, first compound 0.03 µM): 60.6% | viability, T/C (second compound 10 µM, first compound 0.0949 µM): 60.3% | viability, T/C (second compound 10 µM, first compound 0.3 µM): 61.5% | viability, T/C (second compound 10 µM, first compound 0.949 µM): 72% | viability, T/C (second compound 10 µM, first compound 3 µM): 91.9%

COc1cc(C2c3cc4c(cc3C(OC3OC5COC(C)OC5C(O)C3O)C3COC(=O)C23)OCO4)cc(OC)c1O (stereo unspecified) + COC1C(OC(N)=O)C(O)C(Oc2ccc3c(O)c(NC(=O)c4ccc(O)c(CC=C(C)C)c4)c(=O)oc3c2C)OC1(C)C
IC50 (second compound 0.0316 µM): 1330 nM | IC50 (second compound 0.1 µM): 966 nM | IC50 (second compound 0.316 µM): 770 nM | IC50 (second compound 1 µM): 1070 nM | IC50 (second compound 3.16 µM): 854 nM | IC50 (second compound 10 µM): 715 nM | viability, T/C [1]: 97.7% | viability, T/C [2]: 95% | viability, T/C [3]: 72.5% | viability, T/C [4]: 51.3% | viability, T/C [5]: 45.4% | viability, T/C [6]: 31.5% | viability, T/C [7]: 103% | viability, T/C [8]: 94.7% | viability, T/C [9]: 73.5% | viability, T/C [10]: 49.3% | viability, T/C [11]: 38.2% | viability, T/C [12]: 36.4% | viability, T/C [13]: 101% | viability, T/C [14]: 98.6% | viability, T/C [15]: 61.8% | viability, T/C [16]: 51.4% | viability, T/C [17]: 35.7% | viability, T/C [18]: 34.9% | viability, T/C [19]: 109% | viability, T/C [20]: 93.2% | viability, T/C [21]: 85.5% | viability, T/C [22]: 48.3% | viability, T/C [23]: 38% | viability, T/C [24]: 32.7% | viability, T/C [25]: 87.2% | viability, T/C [26]: 88.3% | viability, T/C [27]: 82.4% | viability, T/C [28]: 44.8% | viability, T/C [29]: 39.4% | viability, T/C [30]: 35.5% | viability, T/C [31]: 96.1% | viability, T/C [32]: 101% | viability, T/C [33]: 64.4% | viability, T/C [34]: 51% | viability, T/C [35]: 41.3% | viability, T/C [36]: 36.7%

COc1cccc2c1C(=O)c1c(O)c3c(c(O)c1C2=O)CC(O)(C(=O)CO)CC3OC1CC(N)C(O)C(C)O1 (stereo unspecified) + COC1C(OC(N)=O)C(O)C(Oc2ccc3c(O)c(NC(=O)c4ccc(O)c(CC=C(C)C)c4)c(=O)oc3c2C)OC1(C)C
IC50 (second compound 0.0316 µM): 242 nM | IC50 (second compound 0.1 µM): 225 nM | IC50 (second compound 0.316 µM): 236 nM | IC50 (second compound 1 µM): 250 nM | IC50 (second compound 3.16 µM): 217 nM | IC50 (second compound 10 µM): 224 nM | viability, T/C [1]: 60.2% | viability, T/C [2]: 110% | viability, T/C [3]: 39.3% | viability, T/C [4]: 29.7% | viability, T/C [5]: 30% | viability, T/C [6]: 35.5% | viability, T/C [7]: 75.5% | viability, T/C [8]: 94.4% | viability, T/C [9]: 35.4% | viability, T/C [10]: 25.3% | viability, T/C [11]: 28.9% | viability, T/C [12]: 33.3% | viability, T/C [13]: 67.5% | viability, T/C [14]: 102% | viability, T/C [15]: 38.1% | viability, T/C [16]: 26.9% | viability, T/C [17]: 26.9% | viability, T/C [18]: 30.9% | viability, T/C [19]: 71.2% | viability, T/C [20]: 104% | viability, T/C [21]: 40.3% | viability, T/C [22]: 21.8% | viability, T/C [23]: 26.9% | viability, T/C [24]: 29.5% | viability, T/C [25]: 54.5% | viability, T/C [26]: 107% | viability, T/C [27]: 35% | viability, T/C [28]: 23.9% | viability, T/C [29]: 25.6% | viability, T/C [30]: 38.9% | viability, T/C [31]: 56.1% | viability, T/C [32]: 106% | viability, T/C [33]: 36.8% | viability, T/C [34]: 26.7% | viability, T/C [35]: 28.9% | viability, T/C [36]: 29.8%

— PubChem BioAssay AID1963844 (Molecular Pharmacology Branch, DTP, NCI, 2024)
